The record followed here is patent US12600696B2 (XENIOPRO GMBH, priority 2017, dated 2026).

Format in all cases: cell-based
The subject of assay [1] is HL-60 cells (human acute myeloid leukemia cells). As to the kind of experiment: alamarBlue proliferation assay with HL-60 cells. As to conditions: 120 h, 5 days, relative to DMSO baseline level of 1.0, read-out: AVEw, weighted arithmetic mean of normalized fluorescence intensity values (Activity Range), HL-60 proliferation. In a few lines: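 HL-60 cells (1000/well, RPMI 1640 + 10% FBS) exposed to compound in 0.1% DMSO for 5 days, then alamarBlue fluorescence read (ex 560/em 590 nm). Signals normalized to six DMSO wells per plate (baseline 1.0); outliers removed by Peirce/Chauvenet; weighted mean with combined SD; inhibitor criterion judged at 20 μM reference concentration.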

Assay [2] relates to HPEKp cells (human epidermal keratinocyte progenitors, pooled). As to the kind of experiment: alamarBlue proliferation assay with HPEKp cells. As to conditions: 120 h, relative to DMSO basis level 1.0, read-out: weighted arithmetic mean (AVEw) of normalized fluorescence intensity, activity range. As for the experimental part:
The antiproliferative activities of compounds falling under formula I, formula II, formula III, formula IV and formula V were investigated on cells or cell lines originating from a disorder of the myeloid cell compartment, the neuroendocrine system, the cervix, and the mucosal epithelium, as well as from the skin epithelium. To this end, HL-60 cells, TT cells, HeLa cells, CAL-27 cells and human primary epidermal keratinocytes (HPEK) were seeded into 96-well plates suitable for fluorescence assays (CORNING #3598) at following initial cell numbers: 1000 cells per well for HL-60; 9000 cells per well for TT; 2000 cells per well for HeLa, 2000 cells per well for CAL-27, 2000 cells per well for HPEK. The cells were treated with compounds at indicated final concentrations (diluted from the 1000× stock-solutions in DMSO to a final DMSO concentration of 0.1% v/v) or with the empty carrier DMSO at 0.1% v/v as control for 5 days. At day 5 after starting the treatments the cells were subjected to the alamarBlue® Proliferation Assay (Bio-Rad Serotec GmbH, BUF012B) according to the protocol of the manufacturer. The readout was taken with a multi-well plate-reader in the fluorescence mode with applying a filter for excitation at 560 nm (band width 10 nm) and for emission at 590 nm (band width 10 nm). Resveratrol (RES) treatment was included as control for growth inhibition.
The assays were performed in duplicate or more replicates of independent single experiments each containing a six-fold replicate for every condition. For every individual plate, the measured fluorescence intensity values of the conditions with compound treatment were normalized against the corresponding equally weighted arithmetic mean of the fluorescence intensity values of the six DMSO treated control wells in order to obtain the relative values to a baseline level of 1.0. The statistical calculations were performed in analogy to the luciferase assay as described above. To this end, two independent outlier analyses were performed according to the methods by Peirce and Chauvenet (Ross, Journal of Engineering Technology 2003, 1-12). Outliers confirmed by at least one of the methods were excluded from the calculations but not more than one value out of six per compound within a single experiment. The weighted arithmetic mean AVEw for each compound was calculated from the normalized values over all independent replicates of the single experiments comprising the six replicates each. The corresponding standard deviation for the weighted arithmetic mean was calculated according to the method described by Bronstein et al. (Bronstein, Semendjajew, Musiol, Mühlig, Taschenbuch der Mathematik, 5th edition 2001 (German), publisher: Verlag Harri Deutsch, Frankfurt am Main and Thun) and was combined with the Gauß′ error propagation associated with the performed calculation for the normalization. The resulting standard deviation is herein referred to as “combined standard deviation”.
HPEKp cells were cultivated according to the protocol of the provider in CnT-Prime epithelial culture medium (CELLnTEC, #CnT-PR, a fully defined, low calcium formulation, completely free of animal or human-derived components) without addition of further components.
A compound is considered as a growth inhibitor of HPEKp cells, if—at a reference concentration of 10 μM—the weighted arithmetic mean of the normalized fluorescence intensity values after addition of the corresponding combined standard deviation amounts to 0.9 or lower, in particular to 0.8 or lower, 0.7 or lower, 0.6 or lower, 0.4 or lower, and 0.2 or lower, relative to the overall basis level of 1.0. The overall basis level was calculated as the weighted arithmetic mean of all normalized values from the DMSO control measurements in analogy to the calculations performed for the test-compounds. The corresponding combined standard deviation for the DMSO values amounts to less than 1·10^−2.
A general note: Resazurin is reduced to fluorescent resorufin, in cell work by metabolically active cells.

Assay [3] has as its system BHY cells (human oral squamous cell carcinoma cells). As to the kind of experiment: alamarBlue proliferation assay with BHY cells. The settings on record: 72 h, 3 days treatment, single assay (preliminary), relative to DMSO basis level 1.0, read-out: equally weighted arithmetic mean (AVE) of six normalized fluorescence intensity values, activity range (RES: AVEw). As for the experimental part:
Compounds were tested on BHY cells using the alamarBlue® proliferation assay in analogy to the above described method with seeding the cells at an initial number of 4000 cells per 96-well and a duration of treatment with compounds for 3 days.
BHY cells were cultivated according to the protocol of the provider (but at 5% instead of 10% CO2) in DMEM medium (Fisherscientific, #11584456) containing 10% fetal bovine serum (Fisherscientific, #15517589).
A compound is considered as a growth inhibitor of BHY cells, if—at a reference concentration of 40 μM—the equally weighted arithmetic mean (AVE) of the six normalized fluorescence intensity values after addition of the corresponding standard deviation amounts to 0.9 or lower, in particular to 0.8 or lower, 0.7 or lower, 0.6 or lower, 0.4 or lower, and 0.2 or lower, relative to the overall basis level of 1.0. The overall basis level was calculated as the weighted arithmetic mean (AVEw) of all normalized values from the DMSO control measurements. The corresponding combined standard deviation for the DMSO values amounts to less than 1·10^−2. The corresponding standard deviations for the tested compounds were calculated including the Gauß′ error propagation associated with the performed calculation for the normalization. The weighted arithmetic mean (AVEw) and the combined standard deviation for RES was calculated in analogy to DMSO. Outlier analyses were performed as described above.

Consider `NC(=O)c1ccc(Oc2ccc(C3CC4CCC3C4)cc2)cc1` (racemic) [Compound 159, (±)-4-(4-(Bicyclo[2.2.1]heptan-2-yl)phenoxy)benzamide], for which the activity at 20 µM in assay [1] fell in the range of 40 to 60%. For the same compound, the activity at 10 µM in assay [2] is 0 to 20%.
As for `CCCc1ccc(Oc2ccc(C(=O)NO)cc2)cc1` [Compound 166, N-hydroxy-4-(4-propylphenoxy)benzamide], the activity at 20 µM in assay [1] was 0 to 20%.
As to `CCC(C)(C)c1ccc(Oc2ccc(C(=O)NO)cc2)cc1` [Compound 171, N-hydroxy-4-(4-(tert-pentyl)phenoxy)benzamide], the activity at 20 µM in assay [1] is 0 to 20%. Moreover, the activity at 40 µM in assay [3] lay in the range of 40 to 60%.
`O=C(NO)c1ccc(Oc2ccc(C3CCCCC3)cc2)cc1` [Compound 182, 4-(4-cyclohexylphenoxy)-N-hydroxybenzamide]: the activity at 20 µM in assay [1] is 0 to 20%. Further, in assay [2], the activity at 10 µM was 0 to 20%. For the same compound, in assay [3], the activity at 40 µM was 20 to 40%.
`O=C(NO)c1ccc(Oc2ccc(C34CC5CC(CC(C5)C3)C4)cc2)cc1` [Compound 186, 4-(4-(Adamantan-1-yl)phenoxy)-N-hydroxybenzamide]: in assay [1], the activity at 20 µM was in the range of 0 to 20%. The activity at 40 µM in assay [3] lay in the range of 20 to 40%.
For `CC(C)c1ccc(Oc2ccc(C(=O)NO)cn2)cc1` [Compound 272, N-hydroxy-6-(4-isopropylphenoxy)nicotinamide], in that order: 0 to 20% and 20 to 40%.
With `CCC(C)(C)c1ccc(Oc2ccc(C(=O)NO)cn2)cc1` [Compound 273, N-hydroxy-6-(4-(tert-pentyl)phenoxy)nicotinamide], the activity at 20 µM in assay [1] was in the range of 0 to 20%. Further, the activity at 10 µM in assay [2] fell in the range of 0 to 20%.
In the case of `O=C(NO)c1ccc(Oc2ccc(C3CCCCC3)cc2)nc1` [Compound 284, 6-(4-Cyclohexylphenoxy)-N-hydroxynicotinamide], the activity at 20 µM in assay [1] lay within 0 to 20%. The activity at 40 µM in assay [3] fell in the range of 20 to 40%.
As for `O=C(NO)c1ccc(Oc2ccc(C3CC4CCC3CC4)cc2)nc1` (stereo not shown) [Compound 287, 6-(4-((1s,4s)-bicyclo[2.2.2]octan-2-yl)phenoxy)-N-hydroxynicotinamide], the activity at 20 µM in assay [1] was 0 to 20%. In addition, in assay [2], the activity at 10 µM was in the range of 0 to 20%.
For the compound `O=C(NO)c1ccc(Oc2ccc(C34CC5CC(CC(C5)C3)C4)cc2)nc1` [Compound 288, 6-(4-((3r,5r,7r)-adamantan-1-yl)phenoxy)-N-hydroxynicotinamide], in assay [1], the activity at 20 µM lay in the range of 0 to 20%. In assay [3], the activity at 40 µM was 20 to 40%.
Regarding `CNC(=O)c1ccc(Oc2ccc(C(F)(F)F)cc2)nc1` [Compound 300, N-methyl-6-(4-(trifluoromethyl)phenoxy)nicotinamide], in assay [1], the activity at 20 µM lay in the range of 80 to 90%.
On to `CN(C)C(=O)c1ccc(Oc2ccc(C3CCCCC3)cc2)nc1` [Compound 334, 6-(4-cyclohexylphenoxy)-N,N-dimethylnicotinamide], for which the activity at 20 µM in assay [1] lay in the range of 60 to 70%. Besides, in assay [2], the activity at 10 µM was 60 to 70%.
As to `O=C(NO)c1ccc(Oc2ccc(C34CC5CC(CC(C5)C3)C4)cc2)c(F)c1` [Compound 544, 4-(4-(Adamantan-1-yl)phenoxy)-3-fluoro-N-hydroxybenzamide], the activity at 20 µM in assay [1] was 0 to 20%. Moreover, the activity at 40 µM in assay [3] lay within 20 to 40%.
In the case of `O=C(NO)c1cnc(Oc2ccc(C3CCCCC3)cc2)c(F)c1` [Compound 644, 6-(4-Cyclohexylphenoxy)-5-fluoro-N-hydroxynicotinamide], in assay [1], the activity at 20 µM lay in the range of 0 to 20%. Also, the activity at 10 µM in assay [2] is 0 to 20%. Besides, the activity at 40 µM in assay [3] is 60 to 70%.
`Oc1ccc(C=Cc2cc(O)cc(O)c2)cc1` [RES, resveratrol, reference compound]: the activity at 20 µM in assay [1] worked out at 40%. Also, the activity at 10 µM in assay [2] stood at 40%. In addition, the activity at 40 µM in assay [3] stood at 60%.
